Patent US20260001889A1, “COMPOSITIONS USEFUL FOR MODULATING SPLICING” (Skyhawk Therapeutics, Inc., priority 2022, published 2026)

Assays:
[1] = test system: ATXN3 transcripts containing exon 4; experiment: ATXN3 Quantitative Splicing Assay (qPCR, E4E5 primers/probe); assay type: cell-based; conditions: Homo sapiens, SK-N-MC cells, compounds for 24 h
Experimental: Example 34: ATXN3 Quantitative Splicing Assay
Human neuroblastoma SK-N-MC cells were plated in 384-well plates at 20,000 cells/well. Twenty-four hours after plating, cells were treated with compounds for 24 h at appropriate concentrations ranging from 30 μM to 0.6 nM (0.300 DMSO). Treated cells were lysed in 15 μL of lysis buffer, and cDNA was synthesized using the Fast Advanced Cells-to-Ct kit. Two […] of each cDNA was used in qPCR reactions to confirm the exon 4 skipped transcripts of ATXN3. A second set of primers/probe E4E5 was used to detect the transcripts containing exon 4. The third set of primers/probe E8E9 was used to detect total gene level of ATXN3. The qPCR reactions were prepared in 384-well plates in 10 μL volume, using TaqMan™ Fast Advanced Master Mix with primers and probes shown in the table below. Reactions were run in a Quant Studio 6 qPCR instrument with default settings.
The primers and probes are listed below in Table 4.

total ATXN3 protein = experiment: ATXN3 Total Protein Assay (Mesoscale Discovery, SK-N-MC cells); assay type: cell-based, Human; conditions: incubation for 48 hours, MSD assay
Experimental: Example 35: ATXN3 Total Protein Assay
Human neuroblastoma SK-N-MC cells were seeded at 10,000 cells/well in 384 well plates one day prior to compound treatment. The concentrations of compounds were tested at appropriate doses ranging from 30 μM to 0.6 nM. After incubation for 48 hours, the cells were lysed with 25 μL of lysis buffer containing protease inhibitors, and total ATXN3 protein levels were assessed by Mesoscale Discovery (MSD) assay developed with one pair of anti-ATXN3 antibodies. The capture and detect antibodies were raised in mouse and rabbit respectively. Anti-rabbit MSD-ST antibody was used for secondary antibody.
ATXN3 recombinant protein was used for standards. The readouts were captured with 35 μL of MSD read buffer and multi-array 384-well high binding plates.

ATXN3-HiBiT protein = experiment: ATXN3 Total Protein Assay (Kelly-ATXN3-HiBiT luminescence); assay type: cell-based; conditions: Kelly-ATXN3-HiBiT cells, 48 h after addition of compound
Summary of the method: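 Kelly cells with homozygous C-terminal HiBiT knock-in on endogenous ATXN3, 2000 per well, dosed 24 h after seeding. HiBiT lytic luminescence read 48 h after compound; sister plate read with CellTiter-Glo for viability; fold change vs DMSO.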

| IC50 [1] [nM] | IC50 (total ATXN3 protein) [nM] | EC50 (ATXN3-HiBiT protein) [nM] | Structure (SMILES) |
| --- | --- | --- | --- |
| 101 to 500 | 101 to 500 |  | N[C@H](Cc1oc2c(NCc3cccs3)cc(Cl)nc2c1Br)CC(F)(F)F [Compound 24, 2-[(R)-2-amino-4,4,4-trifluorobutyl]-3-bromo-5-chloro-7-thenylamino-1-oxa-4-azaindene] |
| 0.01 to 100 | 0.01 to 100 |  | N[C@H](Cc1oc2c(NCc3cccs3)cc(Cl)nc2c1Br)CC1CC1 [Compound 55, 2-[(S)-2-amino-3-cyclopropylpropyl]-3-bromo-5-chloro-7-thenylamino-1-oxa-4-azaindene] |
| 101 to 500 | 101 to 500 |  | N[C@H](Cc1oc2c(NCc3ccco3)cc(Cl)nc2c1Cl)CC1CC1 [Compound 29, 2-[(S)-2-amino-3-cyclopropylpropyl]-3,5-dichloro-7-(furfurylamino)-1-oxa-4-azaindene] |
| 0.01 to 100 | 0.01 to 100 |  | N[C@H](Cc1oc2c(NCc3ccco3)cc(Cl)nc2c1Br)CC1CC1 [Compound 56, 2-[(S)-2-amino-3-cyclopropylpropyl]-3-bromo-5-chloro-7-(furfurylamino)-1-oxa-4-azaindene] |
| 501 to 5000 | 501 to 5000 |  | Clc1cc(NCc2cccs2)c2occ(C3CC3)c2n1 [Compound 32, (thenyl)(5-chloro-3-cyclopropyl-1-oxa-4-aza-7-indenyl)amine] |
| 101 to 500 | 101 to 500 |  | N[C@H](Cc1oc2c(NCc3cccs3)cc(Cl)nc2c1Cl)CC1CC1 [Compound 28, 2-[(S)-2-amino-3-cyclopropylpropyl]-3,5-dichloro-7-thenylamino-1-oxa-4-azaindene] |
| 5000 to 10000 |  | 5000 to 10000 | OCc1oc2c(NCc3cccs3)cc(Cl)nc2c1Br [Compound 354, (3-bromo-5-chloro-7-thenylamino-1-oxa-4-aza-2-indenyl)methanol] |
| 101 to 500 | 101 to 500 |  | COC[C@H](N)Cc1oc2c(NCc3ccccc3)cc(Cl)nc2c1Br [Compound 47, 2-[(R)-2-amino-3-methoxypropyl]-7-benzylamino-3-bromo-5-chloro-1-oxa-4-azaindene] |
| 0.01 to 100 | 0.01 to 100 |  | N[C@@H](CF)Cc1oc2c(NCc3ccco3)cc(Cl)nc2c1Br [Compound 39, 2-[(R)-2-amino-3-fluoropropyl]-3-bromo-5-chloro-7-(furfurylamino)-1-oxa-4-azaindene] |
| 101 to 500 |  |  | N[C@H]1CC[C@@H]1c1oc2c(NCc3cccs3)cc(Cl)nc2c1Br (single isomer, unassigned) [Compound 291] |
| 10000 to 40000 |  |  | N[C@@H]1COC[C@H]1c1oc2c(NCc3cccs3)cc(Cl)nc2c1Br [Compound 374, 2-[(3S,4S)-4-aminotetrahydro-3-furyl]-3-bromo-5-chloro-7-thenylamino-1-oxa-4-azaindene] |
| 501 to 5000 |  |  | N[C@@H]1CC[C@H]1c1oc2c(NCc3cccs3)cc(Cl)nc2c1Br (single isomer, unassigned) [Compound 290] |
| 0.01 to 100 |  |  | C#Cc1c([C@H]2CCCC[C@@H]2N)oc2c(NCc3cccs3)cc(Cl)nc12 [Compound 385, 2-[(1S,2S)-2-aminocyclohexyl]-5-chloro-3-ethynyl-7-thenylamino-1-oxa-4-azaindene] |
| 0.01 to 100 |  | 0.01 to 100 | C#Cc1c(C[C@@H](N)CCOC(F)F)oc2c(NCc3cccs3)cc(Cl)nc12 [Compound 197, 2-[(S)-2-amino-4-difluoromethoxybutyl]-5-chloro-3-ethynyl-7-thenylamino-1-oxa-4-azaindene] |
| 5000 to 10000 |  |  | N[C@H]1CC(F)(F)C[C@@H]1c1oc2c(NCc3cccs3)cc(Cl)nc2c1Br (single isomer, unassigned) [Compound 369] |
| 101 to 500 |  |  | N[C@@H]1CC(F)(F)C[C@H]1c1oc2c(NCc3cccs3)cc(Cl)nc2c1Br (single isomer, unassigned) [Compound 388] |
| 501 to 5000 |  |  | N[C@@H]1CCC[C@H]1c1oc2c(NCc3cccs3)cc(Cl)nc2c1Br [Compound 172, 2-[(1R,2R)-2-aminocyclopentyl]-3-bromo-5-chloro-7-thenylamino-1-oxa-4-azaindene] |
| 101 to 500 |  |  | C[C@H](F)[C@H](N)Cc1oc2c(NCc3cccs3)cc(C#N)nc2c1Cl [Compound 104, 2-[(2R,3S)-2-amino-3-fluorobutyl]-3-chloro-7-thenylamino-1-oxa-4-aza-5-indenecarbonitrile] |
| 101 to 500 |  |  | C#Cc1c(C[C@@H](N)[C@H](C)F)oc2c(NCc3cccs3)c(F)c(Cl)nc12 [Compound 278, 2-[(2R,3S)-2-amino-3-fluorobutyl]-5-chloro-3-ethynyl-6-fluoro-7-thenylamino-1-oxa-4-azaindene] |
| 0.01 to 100 |  | 0.01 to 100 | C[C@H](N)C(F)(F)c1oc2c(NCc3cccs3)cc(Cl)nc2c1Br [Compound 187, 2-[(S)-2-amino-1,1-difluoropropyl]-3-bromo-5-chloro-7-thenylamino-1-oxa-4-azaindene] |
| 0.01 to 100 |  |  | N[C@H]1CCC[C@@H]1c1oc2c(NCc3cccs3)cc(Cl)nc2c1Br [Compound 170, 2-[(1S,2S)-2-aminocyclopentyl]-3-bromo-5-chloro-7-thenylamino-1-oxa-4-azaindene] |
| 501 to 5000 |  |  | N[C@H]1CCCC[C@H]1c1cc2nc(Cl)cc(NCc3cccs3)c2o1 (racemic) [Compound 363, rac-2-[(1R,2S)-2-aminocyclohexyl]-5-chloro-N-(thiophen-2-ylmethyl)furo[3,2-b]pyridin-7-amine] |

| Structure (SMILES) | IC50 [1] [nM] | IC50 (total ATXN3 protein) [nM] | EC50 (ATXN3-HiBiT protein) [nM] |
| --- | --- | --- | --- |
| Cc1c(C[C@H](C)N)oc2c(NCc3cccs3)cc(C#N)nc12 [Compound 15, 2-[(2S)-2-aminopropyl]-3-methyl-7-[(thiophen-2-ylmethyl)amino]furo[3,2-b]pyridine-5-carbonitrile] | 501 to 5000 | 501 to 5000 |  |
| Cc1c(CC(C)N)oc2c(NCc3ccncc3)cc(Cl)nc12 (stereo not shown) [Compound 7, 2-(2-aminopropyl)-5-chloro-3-methyl-7-{[(4-pyridyl)methyl]amino}-1-oxa-4-azaindene] | 501 to 5000 | 501 to 5000 |  |
| Cc1c(C[C@H](C)N)oc2c(NCc3ccccc3)cc(Cl)nc12 [Compound 8, 2-[(S)-2-aminopropyl]-7-benzylamino-5-chloro-3-methyl-1-oxa-4-azaindene] | 501 to 5000 | 501 to 5000 |  |
| Cc1c(C[C@H](C)N)oc2c(NCc3ccco3)cc(Cl)nc12 [Compound 10, 2-[(S)-2-aminopropyl]-5-chloro-7-(furfurylamino)-3-methyl-1-oxa-4-azaindene] | 501 to 5000 | 501 to 5000 |  |
| CC(N)Cc1cc2nc(Cl)cc(NCc3ccccc3)c2o1 (stereo not shown) [Compound 2, 2-(2-aminopropyl)-7-benzylamino-5-chloro-1-oxa-4-azaindene] | 5000 to 10000 | 5000 to 10000 |  |
| Cc1c(C[C@@H](C)N)oc2c(NCc3ccncc3)cc(Cl)nc12 (single isomer, unassigned) [Compound 4] | 5000 to 10000 | 501 to 5000 |  |
| C[C@H](N)Cc1oc2c(NCc3ccc(Cl)s3)cc(Cl)nc2c1Br [Compound 353, 2-[(S)-2-aminopropyl]-3-bromo-5-chloro-7-{[(5-chloro-2-thienyl)methyl]amino}-1-oxa-4-azaindene] | 501 to 5000 |  | 501 to 5000 |
| Cc1c(C[C@H](C)N)oc2c(NCc3ccncc3)cc(Cl)nc12 (single isomer, unassigned) [Compound 3] | 501 to 5000 | 501 to 5000 |  |
| COc1cccc(CNc2cc(Cl)nc3c(Br)c(C[C@H](C)N)oc23)c1 [Compound 362, 2-[(S)-2-aminopropyl]-3-bromo-5-chloro-7-{[(m-methoxyphenyl)methyl]amino}-1-oxa-4-azaindene] | 5000 to 10000 |  |  |
| C[C@H](N)Cc1oc2c(NCc3ccco3)cc(Cl)nc2c1C(=O)N(C)C [Compound 357, 2-[(2S)-2-aminopropyl]-5-chloro-7-[(furan-2-ylmethyl)amino]-N,N-dimethylfuro[3,2-b]pyridine-3-carboxamide] | 10000 to 40000 |  |  |
| COc1cccc(CNc2cc(Cl)nc3c(Br)c(C[C@H](C)N)oc23)c1F [Compound 359, 2-[(S)-2-aminopropyl]-3-bromo-5-chloro-7-{[(2-fluoro-3-methoxyphenyl)methyl]amino}-1-oxa-4-azaindene] | 10000 to 40000 |  |  |
| C[C@H](N)Cc1oc2c(NCc3ccc(F)cc3F)cc(Cl)nc2c1Br [Compound 350, 2-[(S)-2-aminopropyl]-3-bromo-5-chloro-7-{[(2,4-difluorophenyl)methyl]amino}-1-oxa-4-azaindene] | 501 to 5000 |  | 501 to 5000 |
| C[C@H](N)Cc1oc2c(NCc3ccco3)cc(Cl)nc2c1-c1nnco1 [Compound 364, 2-[(2S)-2-aminopropyl]-5-chloro-N-(furan-2-ylmethyl)-3-(1,3,4-oxadiazol-2-yl)furo[3,2-b]pyridin-7-amine] | 501 to 5000 |  |  |
